Values quoted from earlier work in US10934070B2, “Anti-scalping pharmaceutical packaging film” (BEMIS COMPANY, INC., priority 2014, dated 2021).

Details: at 25° C.

SMILES: CN1CCCC1c1cccnc1 (stereo not shown) [Nicotine]
- vapor pressure: 5.65 Pa
